From US12213970B2, “Pyridinyl sulfonamide derivatives, pharmaceutical compositions and uses thereof” (Boehringer Ingelheim International GmbH, priority 2018, dated 2025)
Structures can show the parent of a compound that is named as a salt. Where two headings read alike, the source gives them in different places.

Key:
AOC2 = molecular target: T1, AOC2 (Homo sapiens, UniProt O75106); experiment: AOC2 biochemical assay (Amplex Red)
T1 construct: host or cells: HEK293 cells (transient transfection), cell homogenate
T1 sequence (O75106 1-756): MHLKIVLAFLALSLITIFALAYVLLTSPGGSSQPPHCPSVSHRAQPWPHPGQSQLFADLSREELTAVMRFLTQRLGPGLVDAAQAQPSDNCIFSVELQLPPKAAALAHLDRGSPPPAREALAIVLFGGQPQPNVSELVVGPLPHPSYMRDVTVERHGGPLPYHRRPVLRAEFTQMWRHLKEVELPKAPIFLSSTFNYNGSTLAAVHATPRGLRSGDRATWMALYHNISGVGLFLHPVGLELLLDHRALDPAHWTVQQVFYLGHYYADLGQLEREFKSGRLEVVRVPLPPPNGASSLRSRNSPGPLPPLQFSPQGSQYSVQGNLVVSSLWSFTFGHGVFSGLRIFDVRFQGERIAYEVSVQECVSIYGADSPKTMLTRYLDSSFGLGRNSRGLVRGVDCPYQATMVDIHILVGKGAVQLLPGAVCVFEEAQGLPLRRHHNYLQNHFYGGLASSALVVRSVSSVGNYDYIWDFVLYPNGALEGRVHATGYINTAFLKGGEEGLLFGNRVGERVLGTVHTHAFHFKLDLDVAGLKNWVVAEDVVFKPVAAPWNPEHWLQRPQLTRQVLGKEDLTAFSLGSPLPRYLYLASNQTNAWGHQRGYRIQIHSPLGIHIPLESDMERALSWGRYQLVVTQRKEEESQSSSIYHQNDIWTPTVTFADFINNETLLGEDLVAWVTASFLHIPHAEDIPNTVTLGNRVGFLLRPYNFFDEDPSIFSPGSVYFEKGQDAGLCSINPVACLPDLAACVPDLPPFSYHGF
Protocol: The Amplex® Red Assay (commercially available from Thermo Fisher Scientific) provides a sensitive method for the detection of H2O2 generated during enzymatic reactions like the amine oxidation catalyzed by AOC2. […] An aliquot of 5 μL of the compound dilution is added to a 96 well plate (flat bottom F, black, GREINER bio-one, #655900) in a DMSO concentration of 2%. […] Cells are cultured for 3 days in EMEM culture medium containing 10% FCS (#04-00-1A, Biological Industries). After washing twice with ice cold PBS, cells are lysed by mechanic homogenation and cleared supernatants are shock frozen in liquid nitrogen and stored at -80° C. For the determination of AOC2 enzymatic activity cell lysates are thawed on ice and 1:1 diluted with reaction buffer. An Aliquot of 45 μL is added to the compound dilution and incubated for 30 min at 37° C. The enzymatic reaction is started with the addition of 50 μL of Amplex® Red reaction mix (final assay concentration: 100 mM sodiumphosphate, 120 μM Amplex® Red reagent (#A22177 Molecular Probes), 1.5 U/mL Horseradish Peroxidase (#P8375 Sigma-Aldrich), 2 mM phenylethylamine (#[…] Sigma-Aldrich), 0.05% Pluronic F-127 (#P3000MP Sigma-Aldrich), pH 7.4, 37° C.). The turnover per time of the substrate is determined directly with a fluorescence reader (Ex 540 nm/Em 590 nm) like Envision 2104 Multilabel Reader (PERKIN ELMER) for 60 min. (cf. Anal Biochem (1997) 253:169-174; Anal Biochem (1997) 253:162-168)

MAO-A = molecular target: T2, MAO-A (Homo sapiens, UniProt P21397); experiment: MAO-A biochemical assay (MAO-Glo)
T2 construct: purchased Sigma-Aldrich M7316
T2 sequence (P21397 1-527): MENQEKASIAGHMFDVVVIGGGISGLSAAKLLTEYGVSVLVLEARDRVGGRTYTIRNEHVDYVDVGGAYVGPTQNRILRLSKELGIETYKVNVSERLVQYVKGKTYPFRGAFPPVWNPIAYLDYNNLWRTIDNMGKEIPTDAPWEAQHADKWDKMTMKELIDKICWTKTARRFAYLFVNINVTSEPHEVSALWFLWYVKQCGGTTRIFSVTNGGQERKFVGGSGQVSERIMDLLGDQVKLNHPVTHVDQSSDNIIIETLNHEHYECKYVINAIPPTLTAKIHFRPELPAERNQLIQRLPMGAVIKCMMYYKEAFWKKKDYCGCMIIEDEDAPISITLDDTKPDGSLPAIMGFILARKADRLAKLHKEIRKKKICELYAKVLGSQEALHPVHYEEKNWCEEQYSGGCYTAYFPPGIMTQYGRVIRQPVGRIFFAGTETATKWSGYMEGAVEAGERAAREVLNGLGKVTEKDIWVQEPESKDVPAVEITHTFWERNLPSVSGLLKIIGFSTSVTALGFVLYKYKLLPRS
Description: The MAO-Glo™ Assay (commercially available from PROMEGA, #V1402) provides a sensitive method for the measurement of monoamine oxidase (MAO) activity (Valley, M. P. et al., 2006, Anal. Biochem. 359: 238-246) from a variety of tissues, biofluids or recombinant expressed or purified enzymes. As substrate a derivate of the beetle luciferin ((4S)-4,5-dihydro-2-(6-hydroxybenzothiazolyl)-4-thiazole-carboxylic acid) is used, which is oxidized at a primary amine moiety. After a spontaneous elimination and a catalyzed esterase reaction, the turnover of luciferin by the luciferase is recorded as a signal of MAO-A activity.
An aliquot of 3 μL of the compound dilution is added to a 384 well plate (Optiplate, PS, flat bottom F, black, PERKIN ELMER, #6007270) in a DMSO concentration of 1.025%.
A MAO-A enzyme aliquot (M7316, Sigma-Aldrich) is thawed on ice, diluted in reaction buffer to 1.25 mU/μL and added in a volume of 5 μL to the wells. After incubation for 20 minutes at 37° C., 2 μL of MAO substrate (dissolved in DMSO at 16 mM, diluted to 20 μM in assay buffer to obtain a final assay concentration of 4 μM) is added, mixed, and the mixture further incubated for 60 minutes at 37° C.
The turnover of the substrate is determined by the addition of 10 μL of the Detection Reagent mix which was generated by the addition of reconstitution buffer with esterase (PROMEGA, #V1402) to the luciferin detection reagent (PROMEGA, #V1402). After an incubation period of 20 minutes at 37° C., the luminescent signal is measured with a […], e.g. Envision 2104 Multilabel Reader (PERKIN ELMER).

[1] = comparison table, read-out: IC50 AOC2
[2] = comparison table, read-out: IC50 MAO-A

SMILES	IC50 (AOC2; read-out: AOC2 IC50) [nM]	IC50 (MAO-A; IC50, read-out: MAO-A) [nM]	IC50 (AOC2; [1]) [nM]	IC50 (MAO-A; [2]) [nM]	IC50 (AOC2; read-out: IC50 AOC2) [nM]	ratio IC50 AOC2/IC50 AOC3 (fold less active against AOC2 as compared to AOC3) (AOC2; AOC2 versus AOC3) [fold]
CCNC(=O)CC1CCN(S(=O)(=O)c2ccc(OC/C(=C\F)CN)nc2)CC1 [Example 30]	44	21400				
COC(=O)CC1CCN(S(=O)(=O)c2ccc(OC/C(=C\F)CN)nc2)CC1 [Example 32]	39	38600				
COC(=O)C1(C)CCN(S(=O)(=O)c2ccc(OC/C(=C\F)CN)nc2)CC1 [Example 36]	3	13500				
CNC(=O)C1CCN(S(=O)(=O)c2ccc(OC/C(=C\F)CN)nc2)CC1 [Example 37, trifluoroacetate]	193	> 50000				
NC/C(=C/F)COc1ccc(S(=O)(=O)N2CCCCC2)cn1 [Example 38]	61	32300				
CC1(O)CCN(S(=O)(=O)c2ccc(OC/C(=C\F)CN)nc2)CC1 [Example 41]	24	> 50000				
NC/C(=C/F)COc1ccc(S(=O)(=O)N2CCC(O)(C(F)(F)F)CC2)cn1 [Example 42]	9	48200				
NC/C(=C/F)COc1ccc(S(=O)(=O)N2CCC(CC(=O)O)CC2)cn1 [Example 44, trifluoroacetate]	1	> 50000				
NC/C(=C/F)COc1ccc(S(=O)(=O)N2CCC(C(=O)O)CC2)cn1 [Example 46]	45	> 50000				
CC1(C(=O)O)CCN(S(=O)(=O)c2ccc(OC/C(=C\F)CN)nc2)CC1 [Example 47]	5	> 50000				
CC1(C(=O)NC2CCOCC2)CCN(S(=O)(=O)c2ccc(OC/C(=C\F)CN)nc2)CC1 [Example 48, 1-[6-((Z)-2-Aminomethyl-3-fluoro-allyloxy)-pyridine-3-sulfonyl]-4-methyl-piperidine-4-carboxylic acid (tetrahydropyran-4-yl)-amide trifluoroacetate]	73	> 50000				
CC1(C(N)=O)CCN(S(=O)(=O)c2ccc(OC/C(=C\F)CN)nc2)CC1 [Example 49]	21	> 50000				
NC/C(=C/F)COc1ccc(S(=O)(=O)N2CCC(CC(N)=O)CC2)cn1 [Example 50]	16	29600				
NC/C(=C/F)COc1cnc(N2CC[C@H](O)C2)nc1 [Z isomer of example 6 of WO 2018/027892, reference compound]				56300	2730	

Other lines, results leading:

IC50 (AOC2; read-out: AOC2 IC50) [nM]	IC50 (MAO-A; IC50, read-out: MAO-A) [nM]	IC50 (AOC2; [1]) [nM]	IC50 (MAO-A; [2]) [nM]	IC50 (AOC2; read-out: IC50 AOC2) [nM]	ratio IC50 AOC2/IC50 AOC3 (fold less active against AOC2 as compared to AOC3) (AOC2; AOC2 versus AOC3) [fold]	SMILES
40	> 50000					NC/C(=C/F)COc1ccc(S(=O)(=O)N2CC[C@@H](C(N)=O)C2)cn1 [Example 31]
	40500	55	40500			COC1CN(S(=O)(=O)c2ccc(OC/C(=C\F)CN)nc2)C1 [Example 33]
78	15200					COC(=O)C1CCN(S(=O)(=O)c2ccc(OC/C(=C\F)CN)nc2)CC1 [Example 34]
277	> 50000					COC(=O)[C@H]1[C@@H]2CN(S(=O)(=O)c3ccc(OC/C(=C\F)CN)nc3)C[C@@H]21 [Example 35, trans-3-[6-((Z)-2-Aminomethyl-3-fluoro-allyloxy)-pyridine-3-sulfonyl]-3-aza-bicyclo[3.1.0]hexane-6-carboxylic acid methyl ester trifluoroacetate]
56	> 50000					NC/C(=C/F)COc1ccc(S(=O)(=O)N2CC[C@H](C(N)=O)C2)cn1 [Example 39]
40	> 50000					COC1CCN(S(=O)(=O)c2ccc(OC/C(=C\F)CN)nc2)CC1 [Example 40]
	49100		49100	210		NC/C(=C/F)COc1ccc(S(=O)(=O)N2CC[C@H](O)C2)cn1 [Example 43, (S)-1-[6-(Z)-2-Aminomethyl-3-fluoro-allyloxy]-pyridine-3-sulfonyl]-pyrrolidin-3-ol trifluoroacetate]
70	> 50000					NC/C(=C/F)COc1ccc(S(=O)(=O)N2C[C@@H]3[C@H](C2)[C@H]3C(=O)O)cn1 [Example 45, trans-3-[6-((Z)-2-Aminomethyl-3-fluoro-allyloxy)-pyridine-3-sulfonyl]-3-aza-bicyclo[3.1.0]hexane-6-carboxylic acid trifluoroacetate]
		156	2350		52	COC1CN(S(=O)(=O)c2ccc(OC/C(=C\F)CN)cc2)C1 [Reference compound A, reference compound]
